Here are results for 9 compounds from ChEMBL document CHEMBL1201862, “PubChem BioAssay data set” (2004).

The structures appear in SMILES notation.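 Method: 48-hour compound exposure of cells in 96-well plates, five concentrations, linear interpolation of endpoints. Here, GI50 denotes the concentration required for 50% inhibition of growth.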 Active and inactive are the calls of the source. No stated cut-off is given here; in the data, active = GI50 up to about 1.1 µM and inactive = higher. Where only a bound is given, the exact number is not on record here.

Some test systems named below: CAKI-1; DLD-1; DMS-114; HT-29; KM-20L2; LXFL 529; M19-MEL; SK-MEL-5; SK-OV-3; SNB-19; TK-10; UACC-257; XF498; BT-549; MDA-MB-231; MDA-MB-435; NCI/ADR-RES; T47D; DMS-273; LOX IMVI.
Holding throughout (test): NCI tumour cell line growth inhibition, 48 h

Consider `COc1ccc(/C=C/C(=O)C(C)(C)C)cc1OC`, for which the GI50 with CAKI-1 was 78 µM (inactive); in the assay on DLD-1, 65.9 µM (inactive); with DMS-114, 39.7 µM (inactive); in the assay on HT-29, 62.5 µM (inactive); in the assay on KM-20L2, 41.8 µM (inactive); with LXFL 529 it was 43.6 µM (inactive). Also, the GI50 was > 100 µM (inactive) with M19-MEL; 54.1 µM (inactive) in the assay with SK-MEL-5; 76.2 µM (inactive) in the assay with SK-OV-3; > 100 µM (inactive) in the assay with SNB-19; > 100 µM (inactive) with TK-10; 63.5 µM (inactive) in the assay on UACC-257. Further, the GI50 in the assay on XF498 was 66.8 µM (inactive).
As for `Cc1cn(C2CC(n3cc(Cn4ccc(=O)[nH]c4=O)nn3)C(CO)O2)c(=O)[nH]c1=O` (centres undefined), the GI50 in the assay with BT-549, in the assay with CAKI-1, with MDA-MB-231, with MDA-MB-435, in the assay on NCI/ADR-RES and with SK-MEL-5 was > 100 µM (inactive) throughout. The GI50 in the assay with SK-OV-3 is 49 µM (inactive); in the assay with SNB-19, > 100 µM (inactive); in the assay with T47D, > 100 µM (inactive); with TK-10, > 100 µM (inactive); in the assay on UACC-257 it was > 100 µM (inactive).
In the case of `Cc1ccc(/N=N/C(C2=NC(=O)CS2)c2nc3ccccc3[nH]2)cc1` (centres undefined), the GI50 in the assay on CAKI-1, in the assay on DLD-1, in the assay with DMS-114, in the assay with DMS-273, in the assay with HT-29 and in the assay with KM-20L2 was > 100 µM (inactive) throughout. Besides, the GI50 in the assay with LXFL 529, in the assay on M19-MEL, in the assay with SK-MEL-5, in the assay on SK-OV-3, with SNB-19 and in the assay with TK-10 was > 100 µM (inactive) throughout. Besides, the GI50 with UACC-257 and in the assay on XF498 was > 100 µM (inactive) in each case.
In the case of `CN1CCC(C(=O)NNc2ccccc2)CC1`, the GI50 was > 20.6 µM (inactive) in the assay with CAKI-1; 12.8 µM (inactive) in the assay with DLD-1; 9.31 µM (inactive) in the assay with DMS-114; 3.1 µM (inactive) in the assay on DMS-273; 7.53 µM (inactive) with HT-29; 1.69 µM (inactive) in the assay on KM-20L2. Moreover, the GI50 was 0.923 µM (active) in the assay with LOX IMVI; 0.9 µM (active) in the assay on LXFL 529; 13.9 µM (inactive) in the assay on M19-MEL; 14.4 µM (inactive) in the assay on SK-MEL-5; > 100 µM (inactive) in the assay with SK-OV-3; > 100 µM (inactive) in the assay on SNB-19. The GI50 with TK-10 was 18.3 µM (inactive); in the assay with UACC-257 it was 18.6 µM (inactive); in the assay with XF498, > 100 µM (inactive).
On to `C#CCCCCC#Cc1ccccc1C(=O)OC`, for which the GI50 was 47.2 µM (inactive) in the assay on DLD-1; 17.3 µM (inactive) in the assay on DMS-114; 38.3 µM (inactive) with DMS-273; 30.5 µM (inactive) in the assay on HT-29; 58.2 µM (inactive) in the assay on KM-20L2; 14.8 µM (inactive) in the assay on LOX IMVI. Further, the GI50 is 58.6 µM (inactive) in the assay with SK-MEL-5; > 100 µM (inactive) in the assay with SK-OV-3; > 100 µM (inactive) in the assay on SNB-19; > 100 µM (inactive) in the assay with TK-10; 71.8 µM (inactive) in the assay with UACC-257; 65.8 µM (inactive) with XF498.
On to `NC(=O)c1ncn2c1CNC(=O)C2`, for which the GI50 with BT-549, with CAKI-1, in the assay on HT-29, in the assay with MDA-MB-231, in the assay with MDA-MB-435 and in the assay with NCI/ADR-RES was > 100 µM (inactive) in each case. In addition, the GI50 with SK-MEL-5, with SK-OV-3, with SNB-19, in the assay with T47D, in the assay with TK-10 and in the assay on UACC-257 was > 100 µM (inactive) in each case.
For `Nc1nc(Cl)cc(NCCCNc2cc(Cl)nc(N)n2)n1`, the GI50 with DLD-1, in the assay with DMS-114, in the assay on DMS-273, in the assay on HT-29, in the assay on KM-20L2 and in the assay on LOX IMVI was > 100 µM (inactive) each time. In addition, the GI50 in the assay with LXFL 529, in the assay on M19-MEL, in the assay on SK-MEL-5, in the assay on SK-OV-3, in the assay on TK-10 and in the assay with UACC-257 was > 100 µM (inactive) throughout. For the same compound, the GI50 in the assay with XF498 was > 100 µM (inactive).
Turning to `Cc1ccc2c(O)cc(-c3ccc(F)cc3)nc2n1`, the GI50 is 86.3 µM (inactive) in the assay with BT-549; 42 µM (inactive) in the assay with CAKI-1; 30.1 µM (inactive) in the assay with HT-29; 30.1 µM (inactive) with LOX IMVI; 63 µM (inactive) in the assay with MDA-MB-231; 25.7 µM (inactive) with NCI/ADR-RES. Further, the GI50 in the assay on SK-OV-3 was 40.2 µM (inactive); in the assay on SNB-19, 65.9 µM (inactive); with T47D, 41.9 µM (inactive); with TK-10, 46.6 µM (inactive); with UACC-257, 34.1 µM (inactive).
For the compound `COc1cc2c(cc1O)CCN(C)[C@H]2Cc1ccc(Oc2c(O)c(OC)cc3c2C[C@H]2c4c(c(OC)c(OC)c(OC)c4-3)CCN2C)cc1` [THALIFABERIDINE], the GI50 in the assay with BT-549 is 5.75 µM (inactive); in the assay with CAKI-1, 5.06 µM (inactive); in the assay with HT-29, 2.85 µM (inactive); in the assay with LOX IMVI, 1.72 µM (inactive); with MDA-MB-231 it was 3.04 µM (inactive); with MDA-MB-435 it was 3.51 µM (inactive). Further, the GI50 with NCI/ADR-RES was 5.56 µM (inactive); in the assay with SK-MEL-5, 2.9 µM (inactive); in the assay with SK-OV-3, 5.42 µM (inactive); with SNB-19, 6.34 µM (inactive); in the assay with T47D it was 6.05 µM (inactive); in the assay on TK-10 it was 6.11 µM (inactive). The GI50 in the assay with UACC-257 was 7.01 µM (inactive).
